In data set [1] the test system is HBV (HepG2.117 cell line, inducibly HBV producing). Nature of the data set: Anti-HBV activity: intracellular HBV DNA by real-time PCR in HepG2.117 cells after 3 days of treatment. Format: cell-based, hepatitis B virus. The method in brief: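 HepG2.117 cells replicate HBV under Tet-off control, without doxycycline. After induction of replication, cells were treated with serially diluted compound for 3 days, and intracellular HBV DNA was then quantified by real-time PCR with an HBV-specific primer set and probe.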
On the technique in general: In qPCR the cycle at which signal appears reflects the starting amount.

Data set [2] can be described thus: in vitro. Format: cell-based. The note with it: human, HepG2 or HepG2.117 cells, ATPlite, mean value. The method in brief:
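Luminescent ATP quantitation served as the viability endpoint following a 3- or 4-day incubation with test compounds.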

The mark [3] stands for this setting: Hepatitis B virus, HepG2.117, 72 h, HepG2.117 cells, 3 days of treatment, intracellular HBV DNA by real-time PCR; mean value; read-out: EC50 (μM, mean value).
Where [4] appears, read: 3-days incubation (unmarked values).
[5] abbreviates: Hepatitis B virus, HepG2.117, 72 h, HepG2.117 cells, intracellular HBV DNA by real-time PCR, 3 days of treatment, mean value; read-out: EC50 (μM, mean value).
[6] abbreviates: 3-days incubation (not marked with *).

Structures are written as SMILES. Like-named read-outs stand apart in the source and are kept apart here. Some results are limits rather than exact numbers.

For orientation: EC50 means the concentration that produces a half-maximal response. A word on the CC50: it is the concentration at which the toxic effect on the cells reaches its halfway point. Higher therefore signals lower toxicity to the cells. As for `Cc1noc(C)c1-c1ccc(-n2c(NC(C)C)nc3c(c2=O)C[C@@H](C)N(C(=O)c2ccc(Cl)c(Cl)c2)C3)cc1` [Compound C211, (6R)-7-(3,4-dichlorobenzoyl)-3-[4-(3,5-dimethyl-1,2-oxazol-4-yl)phenyl]-6-methyl-2-[(propan-2-yl)amino]-5,6,7,8-tetrahydropyrido[3,4-d]pyrimidin-4(3H)-one], in data set [1] (setting [3]), the EC50 amounted to 0.15 µM. In data set [2] (setting [4]), the CC50 at 3 days was above 50 µM.

Take `COc1ccc(CN(C)c2nc3c(c(=O)[nH]2)CCN(C(=O)c2ccc(Cl)c(Cl)c2)C3)cc1` [Compound C31, 7-(3,4-dichlorobenzoyl)-2-{[(4-methoxyphenyl)methyl](methyl)amino}-5,6,7,8-tetrahydropyrido[3,4-d]pyrimidin-4(3H)-one]: in data set [1] (setting [3]), the EC50 is 2.63 µM. This compound also yielded a CC50 at 3 days in data set [2] (setting [4]) above 50 µM.

With `CNc1noc2cc(-n3c(N[C@@H](C)c4ccc(C(F)(F)F)cc4)nc4c(c3=O)C[C@@H](C)N(C(=O)c3ccc(Cl)c(Cl)c3)C4)ccc12` [Compound C612, (R)-7-(3,4-dichlorobenzoyl)-6-methyl-3-(3-(methylamino)-benzo[d]isoxazol-6-yl)-2-(((S)-1-(4-(trifluoromethyl)phenyl)ethyl)amino)-5,6,7,8-tetrahydropyrido[3,4-d]pyrimidin-4(3H)-one], the EC50 in data set [1] (setting [5]) is 0.14 µM. Besides, the CC50 at 3 days in data set [2] (setting [6]) was above 50 µM.

For the compound `C#C[C@@H]1CCCN1c1nc2c(c(=O)n1-c1ccc(C(=O)NC)cc1)C[C@@H](C)N(C(=O)c1ccc(Cl)c(Cl)c1)C2` (single isomer, unassigned) [Compound C351, 4-[(6R)-7-(3,4-dichlorobenzoyl)-2-[(2*S)-2-ethynylpyrrolidin-1-yl]-6-methyl-4-oxo-5,6,7,8-tetrahydropyrido[3,4-d]pyrimidin-3(4H)-yl]-N-methylbenzamide], the EC50 in data set [1] (setting [3]) amounted to 0.2 µM. This compound also yielded a half-maximal cytotoxic concentration (CC50) at 3 days in data set [2] (setting [4]) above 50 µM.

With `CNc1noc2cc(-n3c(NC(C)C)nc4c(c3=O)C[C@@H](C)N(C(=O)c3ccc(Cl)c(Cl)c3)C4)ccc12` [Compound C305, (6R)-7-(3,4-dichlorobenzoyl)-6-methyl-3-[3-(methylamino)-1,2-benzoxazol-6-yl]-2-[(propan-2-yl)amino]-5,6,7,8-tetrahydropyrido[3,4-d]pyrimidin-4(3H)-one], the EC50 in data set [1] (setting [3]) turned out to be 0.07 µM. The CC50 at 3 days in data set [2] (setting [4]) was above 50 µM.

Consider `COc1ccccc1CNc1nc2c(c(=O)n1-c1ccccc1OC)CCN(C(=O)c1ccc(Cl)c(Cl)c1)C2` [Compound C17, 7-(3,4-dichlorobenzoyl)-3-(2-methoxyphenyl)-2-{[(2-methoxyphenyl)methyl]amino}-5,6,7,8-tetrahydropyrido[3,4-d]pyrimidin-4(3H)-one], for which the half-maximal effective concentration (EC50) in data set [1] (setting [3]) was 0.97 µM. Moreover, the cytotoxic concentration (CC50) at 4 days in data set [2] (4-days incubation (values marked with *)) was found to be 28.9 µM.

On to `CNC(=O)c1ccc(-n2c(NC(C)C)nc3c(c2=O)C[C@@H](C)N(C(=O)c2ccc(Cl)c(C(F)(F)F)c2)C3)nn1` [Compound C684], for which the EC50 in data set [1] (setting [5]) was found to be 0.06 µM. In addition, the CC50 at 3 days in data set [2] (setting [6]) was above 50 µM.

Take `CNC(=O)c1ccc(-n2c(N[C@H]3CCCC3(C)C)nc3c(c2=O)C[C@@H](C)N(C(=O)c2ccc(Cl)c(Cl)c2)C3)cc1` (single isomer, unassigned) [Compound C319, 4-[(6R)-7-(3,4-dichlorobenzoyl)-2-{[(1*S)-2,2-dimethylcyclopentyl]amino}-6-methyl-4-oxo-5,6,7,8-tetrahydropyrido[3,4-d]pyrimidin-3(4H)-yl]-N-methylbenzamide]: in data set [1] (setting [3]), the EC50 was found to be 0.21 µM. In data set [2] (setting [4]), this compound came in with a CC50 at 3 days of 23.5 µM.

As for `COC(=O)C1COCCN1c1ccc(-n2c(NC(C)C)nc3c(c2=O)CCN(C(=O)c2ccc(Cl)c(Cl)c2)C3)cc1` (stereo not drawn) [Compound C179, methyl 4-{4-[7-(3,4-dichlorobenzoyl)-4-oxo-2-[(propan-2-yl)amino]-5,6,7,8-tetrahydropyrido[3,4-d]pyrimidin-3(4H)-yl]phenyl}morpholine-3-carboxylate], the EC50 in data set [1] (setting [3]) stood at 0.72 µM. Further, it took 19.3 µM to reach half-maximal cytotoxicity in data set [2] (setting [4]) (CC50 at 3 days).

Turning to `CNC(=O)c1cc(-n2c(NC(C)C)nc3c(c2=O)C[C@@H](C)N(C(=O)c2ccc(Cl)c(C(F)(F)F)c2)C3)n(C)n1` [Compound C645], the EC50 in data set [1] (setting [5]) turned out to be 0.04 µM. Besides, the CC50 at 3 days in data set [2] (setting [6]) is above 50 µM.

Take `CNC(=O)c1ccc(-n2c(NC(C)C)nc3c(c2=O)C[C@@H](C)N(C(=O)c2ccc(OC(F)F)c(Cl)c2)C3)cc1` [Compound C475]: in data set [1] (setting [5]), the EC50 amounted to 0.07 µM. For the same compound, the CC50 at 3 days in data set [2] (setting [6]) was above 50 µM.

On to `CNC(=O)c1ccc(-n2c(N3CC4CC3(C)C4)nc3c(c2=O)C[C@@H](C)N(C(=O)c2ccc(Cl)c(Cl)c2)C3)cc1` [Compound C444], for which the EC50 in data set [1] (setting [5]) was found to be 0.06 µM. Moreover, the cytotoxic concentration (CC50) at 3 days in data set [2] (setting [6]) was 37.6 µM.

For `COc1ccccc1-n1c(N[C@H](C)c2ccccc2)nc2c(c1=O)CCN(C(=O)c1ccc(Cl)c(Cl)c1)C2` [Compound C44, 7-(3,4-dichlorobenzoyl)-3-(2-methoxyphenyl)-2-{[(1R)-1-phenylethyl]amino}-5,6,7,8-tetrahydropyrido[3,4-d]pyrimidin-4(3H)-one], the half-maximal effective concentration (EC50) in data set [1] (setting [3]) turned out to be 6.99 µM. Also, in data set [2] (setting [4]), the CC50 at 3 days came to 25.3 µM.

Regarding `CNC(=O)c1ccc(-n2c(N[C@H](C)c3ccc(C(F)(F)F)c(Cl)c3)nc3c(c2=O)C[C@@H](C)N(C(=O)c2ccc(Cl)c(Cl)c2)C3)cc1` (single isomer, unassigned) [Compound C664a], the concentration for a half-maximal effect (EC50) in data set [1] (setting [5]) was 0.13 µM. This compound also returned a CC50 at 3 days in data set [2] (setting [6]) of 6.7 µM.

For `COC(=O)[C@H]1CC[C@H](n2c(NC(C)C)nc3c(c2=O)C[C@@H](C)N(C(=O)c2ccc(Cl)c(Cl)c2)C3)CC1` [Compound C370], the EC50 in data set [1] (setting [3]) is 0.85 µM. Moreover, the CC50 at 3 days in data set [2] (setting [4]) is above 50 µM.

`CNC(=O)c1ccc(-n2c(NC(C)C)nc3c(c2=O)C[C@@H](C)N(C(=O)c2ccc(Br)cc2OC(F)F)C3)cc1` [Compound C522]: the 50% effective concentration (EC50) in data set [1] (setting [5]) was found to be 0.77 µM. In addition, in data set [2] (setting [6]), the cytotoxic concentration (CC50) at 3 days was above 50 µM.

In the case of `CNC(=O)c1ccc(-n2c(NC(C)C)nc3c(c2=O)C[C@@H](C)N(C(=O)c2cc(F)cc(F)c2)C3)cc1` [Compound C502], in data set [1] (setting [5]), the concentration for a half-maximal effect (EC50) amounted to 8.95 µM. Besides, the CC50 at 3 days in data set [2] (setting [6]) was above 50 µM.

Consider `CC(C)Nc1nc2c(c(=O)n1-c1ccc(-c3ncccn3)cc1)C[C@@H](C)N(C(=O)c1ccc(Cl)c(Cl)c1)C2` [Compound C237, (6R)-7-(3,4-dichlorobenzoyl)-6-methyl-2-[(propan-2-yl)amino]-3-[4-(pyrimidin-2-yl)phenyl]-5,6,7,8-tetrahydropyrido[3,4-d]pyrimidin-4(3H)-one], for which the EC50 in data set [1] (setting [3]) is 0.23 µM. For the same compound, in data set [2] (setting [4]), the CC50 at 3 days was above 50 µM.

Turning to `CC(C)Nc1nc2c(c(=O)n1-c1ccc(C(=O)NC3CC3)cc1)C[C@@H](C)N(C(=O)c1ccc(Cl)c(Cl)c1)C2` [Compound C167, N-cyclopropyl-4-[(6R)-7-(3,4-dichlorobenzoyl)-6-methyl-4-oxo-2-[(propan-2-yl)amino]-5,6,7,8-tetrahydropyrido[3,4-d]pyrimidin-3(4H)-yl]benzamide], in data set [1] (setting [3]), the EC50 was determined as 0.06 µM. Moreover, the CC50 at 3 days in data set [2] (setting [4]) is above 50 µM.

Turning to `CNC(=O)c1ccc(-n2c(NCc3ccc(OC)cc3)nc3c(c2=O)CCN(C(=O)c2ccc(Cl)c(Cl)c2)C3)cc1` [Compound C129, 4-[7-(3,4-dichlorobenzoyl)-2-{[(4-methoxyphenyl)methyl]amino}-4-oxo-5,6,7,8-tetrahydropyrido[3,4-d]pyrimidin-3(4H)-yl]-N-methylbenzamide], in data set [1] (setting [3]), the EC50 stood at 0.44 µM. Further, in data set [2] (setting [4]), the CC50 at 3 days worked out at 44.4 µM.

Turning to `CNC(=O)c1ccc(-n2c(NC(C)C)nc3c(c2=O)C[C@@H](C)N(C(=O)c2ccc(Br)c(C)c2)C3)cc1` [Compound C589], the EC50 in data set [1] (setting [5]) came to 0.04 µM. Further, the CC50 at 3 days in data set [2] (setting [6]) is above 50 µM.

Source of the values: patent publication US20230091047A1 (priority 2019, published 2023).
